Target: T1, HSP-90 (Homo sapiens, UniProt P07900)
T1 construct: fused on or other part: 6-His tag at the C-terminus
Test: HSP-90 SPA (scintillation proximity assay) competition binding assay, displacement of tritiated propyl-Geldanamycin
Settings: for inhibition at 1 µM: read-out: % inhibition @ 1 μM; for inhibition at 10 µM: read-out: % inhibition @ 10 μM
Protocol: Compounds of the present invention were evaluated for potency against HSP-90 using a SPA (scintillation proximity assay) competition binding assay. Briefly, either full length or N-terminal HSP-90 that contains a 6-His tag on its C-terminus binds to copper on Yttrium-silicate scintillant beads via the His-tag. Tritiated propyl-Geldanamycin (pGA), whose structure is shown below, is an analog of a natural inhibitor of HSP-90 called Geldanamycin.
Tritiated pGA, which contains a tritiated propyl-amine group added at the #17 position, binds HSP-90 and brings the isotope into proximity with the beads. […] The beta signal emitted from the isotope excites the scintillant, which creates a measurable signal. As competitive compounds are added to the assay mixture, they compete with bound tritiated pGA at the ATP-binding site on the N-terminal of HSP-90. When a compound displaces the labeled pGA, the signal is reduced (the beta-particles are no longer in proximity with the bead). This reduction in signal is used to quantify the extent to which the inhibitor/compound is competitive with pGA.
Typical reaction solutions contained 30 nM HSP-90 and 200 nM ^3H-pGA in binding buffer (100 mM Hepes, pH 7.5 and 150 mM KCl). […] Inhibitors were added to the HSP-90/^3H-pGA solutions at eleven different concentrations for Ki determinations. […] To determine percent inhibition, the compound was tested at 1 and 10 μM. The final DMSO in the samples was 4%. Copper-Ysi beads (Amersham, #RPNQ0096) that have been diluted in binding buffer were added to each well to give a final concentration of 100 μg/well. The plates were sealed, covered with a foil-covered lid and shaken for 30 minutes at room temperature. The beads were allowed to settle for 30 minutes after which the plates were counted using a Packard TopCount NXT instrument. This procedure has also been adapted for medium throughput using a Beckman Biomek FX. Samples were run in duplicate and on two separate days to assure an accurate value of Ki.
For Ki determinations, the corrected cpm's (actual cpm's minus background) were plotted vs. inhibitor concentration using GraphPad Prism software. […] The IC50 was then used to calculate the Ki by using the Cheng-Prusoff equation: […]
This is normally true when the observed IC50 is […] the HSP-90 concentration. For a tight binding inhibitor, the following equation can be applied: […]
EL and ELo are the radioligand-HSP-90 complexes in the presence and absence of inhibitor, respectively. EL/ELo represents the fractional signal in the presence of inhibitor. Io, Eo, and Lo are the inhibitor, HSP-90, and radioligand concentrations, respectively.

| SMILES | inhibition at 1 µM | inhibition at 10 µM |
| --- | --- | --- |
| O=C(c1ccc(O)cc1O)N1CCC(CCc2ccccc2)C1 (stereo not drawn) [Example 65, 4-{[3-(2-phenylethyl)pyrrolidin-1-yl]carbonyl}benzene-1,3-diol] | 69.7% | 87% |
| O=C(c1ccc(O)cc1O)N1CCOCC2(CC(c3ccc(F)cc3)=NO2)C1 (stereo not drawn) [Example 120, 4-{[3-(4-fluorophenyl)-1,7-dioxa-2,10-diazaspiro[4.6]undec-2-en-10-yl]carbonyl}benzene-1,3-diol] | 76.2% | 89.4% |
| O=C1CC2(CCN(C(=O)c3ccc(O)cc3O)CC2)Oc2ccccc21 [Example 85] | 52.1% | 79.6% |
| O=C(c1ccc(O)cc1O)N1CCCN(c2nc3cc(Cl)ccc3o2)CC1 [Example 88, 4-{[4-(5-chloro-1,3-benzoxazol-2-yl)-1,4-diazepan-1-yl]carbonyl}benzene-1,3-diol] | 4.3% | 42.9% |
| O=C(c1ccc(O)cc1O)N1CCN(c2nc(-c3ccccc3C(F)(F)F)cc(=O)[nH]2)CC1 [Example 126, 2-[4-(2,4-dihydroxybenzoyl)piperazin-1-yl]-6-[2-(trifluoromethyl)phenyl]pyrimidin-4(3H)-one] | 35.9% | 71% |
| O=C(c1ccc(O)cc1O)N1CCC(c2ccccc2)(c2ccccc2)CC1 [Example 54, 4-[(4,4-diphenylpiperidin-1-yl)carbonyl]benzene-1,3-diol] | 50.3% | 85.5% |
| CN(Cc1nnc(-c2ccc(F)cc2)o1)C(=O)c1ccc(O)cc1O [Example 119, N-{[5-(4-fluorophenyl)-1,3,4-oxadiazol-2-yl]methyl}-2,4-dihydroxy-N-benzamide] | 50.9% | 82.8% |
| O=C(c1ccc(O)cc1O)N1CCC(O)(c2ccc(Cl)cc2)CC1 [Example 76, 4-{[4-(4-chlorophenyl)-4-hydroxypiperidin-1-yl]carbonyl}benzene-1,3-diol] | 48.4% | 81% |
| Cc1ccccc1C1CCCN1C(=O)c1ccc(O)cc1O (stereo not drawn) [Example 73, 4-{[2-(2-methylphenyl)pyrrolidin-1-yl]carbonyl}benzene-1,3-diol] | 82.7% | 91.6% |
| CN(Cc1ccc(Oc2ccccc2)cc1)C(=O)c1ccc(O)cc1O [Example 107, 2,4-dihydroxy-N-methyl-N-(4-phenoxybenzyl)benzamide] | 51.1% | 83.4% |
| COc1ccc(CCN(C)C(=O)c2ccc(O)cc2O)cc1OC [Example 102, N-[2-(3,4-dimethoxyphenyl)ethyl]-2,4-dihydroxy-N-methylbenzamide] | 9.8% | 54.4% |
| O=C(c1ccc(O)cc1O)N1CCCCC1 [Example 63, 4-(piperidin-1-ylcarbonyl)benzene-1,3-diol] | 32.2% | 72% |
| O=C(c1ccc(O)cc1O)N1CCOCC(COCc2c(Cl)cccc2Cl)C1 (stereo not drawn) [Example 122, 4-[(6-{[(2,6-dichlorobenzyl)oxy]methyl}-1,4-oxazepan-4-yl)carbonyl]benzene-1,3-diol] | 48.2% | 79% |
| O=C(c1ccc(O)cc1O)N1CCSC1 [Example 117, 4-(1,3-thiazolidin-3-ylcarbonyl)benzene-1,3-diol] | 65% | 89.2% |
| O=C(c1ccc(O)cc1O)N1CCCC(CCOc2ccccc2)C1 (stereo not drawn) [Example 55, 4-{[3-(2-phenoxyethyl)piperidin-1-yl]carbonyl}benzene-1,3-diol] | 77.4% | 87% |
| COc1cc(C2=NOC3(COCCN(C(=O)c4ccc(O)cc4O)C3)C2)ccc1F (stereo not drawn) [Example 129, 4-{[3-(4-fluoro-3-methoxyphenyl)-1,7-dioxa-2,10-diazaspiro[4.6]undec-2-en-10-yl]carbonyl}benzene-1,3-diol] | 60.5% | 88.5% |
| O=C(c1ccc(O)cc1O)N1CCOCC(COCC2CC2)C1 (stereo not drawn) [Example 37] | 24.6% | 64.1% |
| O=C(c1ccc(O)cc1O)N1CCc2ccccc2C1c1ccccc1 (stereo not drawn) [Example 103, (2,4-Dihydroxy-phenyl)-(1-phenyl-3,4-dihydro-1H-isoquinolin-2-yl)-methanone] | 64.5% | 87.8% |
| C[C@H](c1ccccc1)N(C)C(=O)c1ccc(O)cc1O [Example 67, 2,4-dihydroxy-N-methyl-N-(1-phenylethyl)benzamide] | -0.8% | 35.4% |
| O=C(c1ccc(O)cc1O)N1CCN(c2cnccn2)CC(CO)C1 (stereo not drawn) [Example 124, 4-{[6-(hydroxymethyl)-4-pyrazin-2-yl-1,4-diazepan-1-yl]carbonyl}benzene-1,3-diol] | -4.8% | 18.1% |
| O=C(c1ccc(O)cc1O)N1CCC(c2ccnc(C(F)(F)F)n2)CC1 [Example 83, 4-({4-[2-(trifluoromethyl)pyrimidin-4-yl]piperidin-1-yl}carbonyl)benzene-1,3-diol] | 10.1% | 35% |
| O=C(c1ccc(O)cc1O)N1CCN(c2cnccn2)CC1 [Example 111, 4-[(4-pyrazin-2-ylpiperazin-1-yl)carbonyl]benzene-1,3-diol] | 5.9% | 64.2% |
| Cc1cccc(N2CCN(C(=O)c3ccc(O)cc3O)CC2)n1 [Example 101, 4-{[4-(6-methylpyridin-2-yl)piperazin-1-yl]carbonyl}benzene-1,3-diol] | 21.8% | 70.2% |
| O=C(c1ccc(O)cc1O)N1CC=CCC1 [Example 97, 4-(3,6-dihydropyridin-1(2H)-ylcarbonyl)benzene-1,3-diol] | 62.7% | 82.6% |
| Cc1cc(C)c2c(c1)CCC1(CCN(C(=O)c3ccc(O)cc3O)CC1)O2 [Example 75, 4-[(6,8-dimethyl-3,4-dihydro-1′H-spiro[chromene-2,4′-piperidin]-1′-yl)carbonyl]benzene 1,3-diol] | 51.6% | 82% |
| O=C(c1ccc(O)cc1O)N1CCC(c2cccc(Cl)c2)C1 (stereo not drawn) [Example 96, 4-{[3-(3-chlorophenyl)pyrrolidin-1-yl]carbonyl}benzene-1,3-diol] | 20.8% | 67.6% |
| O=C(c1ccc(O)cc1O)N1CCOCC(Cc2ccc(Cl)c(Cl)c2)C1 (stereo not drawn) [Example 99, 4-{[6-(3,4-dichlorobenzyl)-1,4-oxazepan-4-yl]carbonyl}benzene-1,3-diol] | 52.2% | 80% |
| CC(C)CN(C)C(=O)c1ccc(O)cc1O [Example 39, 2,4-dihydroxy-N-isobutyl-N-methylbenzamide] | 11.3% | 52.3% |
| CC(C)(C)CC1CCCCN1C(=O)c1ccc(O)cc1O (stereo not drawn) [Example 41, 4-{[2-(2,2-dimethylpropyl)piperidin-1-yl]carbonyl}benzene-1,3-diol] | 64.8% | 86.8% |
| O=C(c1ccc(O)cc1O)N1CCOC[C@@H]1c1ccccc1 [Example 135, 4-[(3-phenylmorpholin-4-yl)carbonyl]benzene-1,3-diol] | 15.9% | 44.7% |

Source: US20090215742A1, “AMIDE […]” (PFIZER, INC., priority 2005, published 2009)
